# Measured values taken from the OligoGym collection.
# After the bases stand the sugars from the 5' end (letter, count) and the backbone: PS all phosphorothioate, else s phosphorothioate and o phosphodiester by linkage. Methylation of C is not given here. e = 2'-O-(2-methoxyethyl) (MOE); k = constrained ethyl (cEt); d = 2'-deoxy (DNA); m = 2'-O-methyl
# Biological target: HSD17B13
# Settings: ASO, HepaRG
Sequence,target mRNA inhibition (1 µM),also measured
"CTCTCCATCATCGATG (sugars k3 d10 k3, PS)",0%,
"CTCTGTGAAAGCCAAC (sugars k3 d10 k3, PS)",50%,
"CTCTTAGCTGTGCACT (sugars k3 d9 k3 e1, PS)",66%,target mRNA inhibition (0.02 µM): 0%; target mRNA inhibition (0.078 µM): 20%; target mRNA inhibition (0.313 µM): 0%; target mRNA inhibition (1.25 µM): 39%; target mRNA inhibition (5 µM): 79%
"CTCTTGACAATGGTTG (sugars k3 d10 k3, PS)",50%,
"CTCTUAGCTGTGCACT (sugars k3 d1 m1 d8 k3, PS)",67%,target mRNA inhibition (0.02 µM): 16%; target mRNA inhibition (0.078 µM): 14%; target mRNA inhibition (0.313 µM): 33%; target mRNA inhibition (1.25 µM): 52%; target mRNA inhibition (5 µM): 58%
"CTGAAAAGCCCTATTC (sugars k3 d10 k3, PS)",11%,
"CTGAAATTGATACACC (sugars k3 d1 m1 d8 k3, PS)",71%,
"CTGATATGAGTAAAGA (sugars k3 d10 k3, PS)",21%,
"CTGCATTAATGCCACC (sugars k3 d9 k3 e1, PS)",40%,
"CTGCATTAATGCCACC (sugars kkdddddddddkekek, PS)",6%,
"CTGCTGCTAGTGCCAA (sugars k3 d9 k3 e1, PS)",66%,
"CTGCTGCTAGTGCCAA (sugars kkdddddddddkekek, PS)",44%,
"CTGGAACAATATGGGA (sugars k3 d1 m1 d9 k2, PS)",45%,
"CTGGAACAATATGGGA (sugars k3 d9 k3 e1, PS)",36%,
"CTGGAACAATATGGGA (sugars kkdddddddddkekek, PS)",33%,
"CTGGAAGATTAATCAT (sugars k3 d10 k3, PS)",31%,
"CTGGAGAAGAGTTTAC (sugars k3 d10 k3, PS)",38%,
"CTGTAAGAGTCAGTAT (sugars k3 d10 k3, PS)",42%,
"CTGTATTAAGACAGTT (sugars k3 d10 k3, PS)",41%,
"CTGTCATAAAGGTGGG (sugars k3 d10 k3, PS)",59%,
"CTGTGACGATGTGGCC (sugars k3 d10 k3, PS)",28%,
"CTGTGGCATGGCTACA (sugars kkdddddddddkekek, PS)",33%,
"CTGTGTAAATAAGTTC (sugars k3 d10 k3, PS)",38%,
"CTGTGTTAGCTTTAAT (sugars kkdddddddddkekek, PS)",47%,
"CTTAAACCTTCCCTGT (sugars k3 d1 m1 d8 k3, PS)",24%,
"CTTAAACCTTCCCTGT (sugars k3 d9 k3 e1, PS)",34%,

Sequence,target mRNA inhibition (1 µM),also measured
"CTTAAGAGAAGGTGCA (sugars k3 d10 k3, PS)",43%,
"CTTAAGATACCCAGGT (sugars k3 d9 k3 e1, PS)",45%,
"CTTACATATTGCATAC (sugars k3 d10 k3, PS)",35%,
"CTTAGTGTAGAATTGT (sugars k3 d10 k3, PS)",56%,
"CTTATTGGTAAGTATT (sugars k3 d9 k3 e1, PS)",24%,
"CTTATTGGTAAGTATT (sugars k3 d10 k3, PS)",22%,
"CTTCACCAACGACTCC (sugars k3 d10 k3, PS)",8%,
"CTTCAGAGTTATACAG (sugars k3 d10 k3, PS)",35%,
"CTTCATAGTGGACTTC (sugars k3 d1 m1 d8 k3, PS)",35%,
"CTTCTATTGTATGAGG (sugars k3 d10 k3, PS)",40%,
"CTTCTGTAGGTTTTGC (sugars k3 d10 k3, PS)",60%,
"CTTGAACAGTCTTAAA (sugars kkdddddddddkekek, PS)",38%,
"CTTGAATAGCAAGCCA (sugars k3 d10 k3, PS)",25%,
"CTTGATCTCTTAGCTG (sugars k3 d9 k3 e1, PS)",36%,
"CTTGATGTAGTGGGAG (sugars k3 d10 k3, PS)",83%,target mRNA inhibition (0.02 µM): 0%; target mRNA inhibition (0.078 µM): 4%; target mRNA inhibition (0.313 µM): 21%; target mRNA inhibition (1.25 µM): 62%; target mRNA inhibition (5 µM): 80%
"CTTGATGTAGTGGGAG (sugars kkdddddddddkekek, PS)",20%,
"CTTTTAACTACCCTCA (sugars k3 d10 k3, PS)",16%,
"CTTTTAGGGAGGTAGC (sugars k3 d10 k3, PS)",62%,
"CTTTTTATAGACTGGG (sugars k3 d9 k3 e1, PS)",44%,
"CTTTTTATAGACTGGG (sugars k3 d10 k3, PS)",67%,
"GAAAAAGGTTATCATG (sugars k3 d10 k3, PS)",31%,
"GAAACCAATCCTCAGC (sugars k3 d10 k3, PS)",3%,
"GAAACTTGATCTCTTA (sugars k3 d10 k3, PS)",64%,
"GAAACTTGATCTCTTA (sugars kkdddddddddkekek, PS)",54%,
"GAAATAACTGTTCTCC (sugars k3 d10 k3, PS)",32%,
"GAACAATATGGGATGA (sugars k3 d10 k3, PS)",26%,

Sequence,target mRNA inhibition (1 µM),also measured
"GAACAGTCTTAAACCT (sugars k3 d9 k3 e1, PS)",64%,
"GAACAGTCTTAAACCT (sugars k3 d10 k3, PS)",64%,
"GAACAGTTCAACTGAA (sugars k3 d10 k3, PS)",10%,
"GAACATACATTGTTGC (sugars k3 d10 k3, PS)",58%,
"GAACTGTGTTGCTTGT (sugars k3 d10 k3, PS)",77%,
"GAAGACTACATTAACA (sugars k3 d10 k3, PS)",36%,
"GAAGAGGCTAGGGAAA (sugars k3 d10 k3, PS)",44%,
"GAAGATCGGCTGGATA (sugars k3 d10 k3, PS)",16%,
"GAATAGGAGAGTCTTT (sugars k3 d10 k3, PS)",58%,
"GAATCATGATTGAATT (sugars k3 d10 k3, PS)",39%,
"GAATCATTAAGCTTAG (sugars k3 d10 k3, PS)",63%,
"GAATGCTACTTGAACA (sugars k3 d10 k3, PS)",44%,
"GAATGCTACTTGAACA (sugars kkdddddddddkekek, PS)",48%,
"GAATTATTTCTTGCGA (sugars k3 d10 k3, PS)",61%,
"GACACTAATTTAGTCA (sugars k3 d10 k3, PS)",11%,
"GACAUGAGGTTTTGAT (sugars k3 d1 m1 d8 k3, PS)",34%,
"GACCATGCTGCTACTC (sugars k3 d10 k3, PS)",74%,
"GACTATAAAAAGGGAG (sugars k3 d10 k3, PS)",40%,
"GACTGCTGCTAGTGCC (sugars k3 d9 k3 e1, PS)",49%,
"GACTTCTTACGACTTC (sugars k3 d10 k3, PS)",38%,
"GAGAAATCTAAGAACC (sugars k3 d10 k3, PS)",42%,
"GAGACATGAGGTTTTG (sugars kkdddddddddkekek, PS)",49%,
"GAGATAAAGCTGCCTG (sugars k3 d10 k3, PS)",67%,
"GAGATTACCCCTGGCT (sugars k3 d10 k3, PS)",72%,
"GAGCGATAGATCTCTT (sugars k3 d10 k3, PS)",0%,
"GAGTAAACGACTCTGT (sugars k3 d10 k3, PS)",43%,

Sequence,target mRNA inhibition (1 µM),also measured
"GAGTAATCAGTTTTCC (sugars k3 d10 k3, PS)",65%,
"GAGTAGATGATGGTGA (sugars k3 d10 k3, PS)",28%,
"GAGTAGTGGAGCCAGA (sugars k3 d10 k3, PS)",44%,
"GAGTCATAATTTGCTT (sugars k3 d10 k3, PS)",57%,
"GAGTCGGTCACCTTTC (sugars k3 d1 m1 d8 k3, PS)",55%,
"GAGTGCATCTTAAGAT (sugars k3 d1 m1 d8 k3, PS)",7%,
"GAGTTATCTGGTTTGC (sugars k3 d10 k3, PS)",84%,target mRNA inhibition (0.02 µM): 0%; target mRNA inhibition (0.078 µM): 0%; target mRNA inhibition (0.313 µM): 27%; target mRNA inhibition (1.25 µM): 68%; target mRNA inhibition (5 µM): 91%
"GAGTTATTCTCTTGAC (sugars k3 d10 k3, PS)",57%,
"GAGTTCTACACCACAC (sugars k3 d10 k3, PS)",76%,target mRNA inhibition (0.02 µM): 0%; target mRNA inhibition (0.078 µM): 19%; target mRNA inhibition (0.313 µM): 32%; target mRNA inhibition (1.25 µM): 65%; target mRNA inhibition (5 µM): 87%
"GAGTUGCACCGTTTTG (sugars k3 d1 m1 d8 k3, PS)",63%,
"GATAATATGTGACTTG (sugars k3 d10 k3, PS)",68%,
"GATAATTTGGTGTCAT (sugars k3 d10 k3, PS)",59%,
"GATAGTGAACATACAT (sugars k3 d10 k3, PS)",54%,
"GATATTCTGTGGCATG (sugars kkdddddddddkekek, PS)",52%,
"GATCATTGCAGAAAGA (sugars k3 d10 k3, PS)",23%,
"GATCTCTTAGCTGTGC (sugars k3 d10 k3, PS)",64%,
"GATCTCTTAGCTGTGC (sugars kkdddddddddkekek, PS)",45%,
"GATCTGAGTTACATTA (sugars k3 d10 k3, PS)",69%,
"GATGAGTAGGCAACTG (sugars k3 d10 k3, PS)",42%,
"GATGCTCCATAATAAT (sugars k3 d1 m1 d8 k3, PS)",24%,
"GATGCTCCATAATAAT (sugars k3 d10 k3, PS)",42%,
"GATGGTGATCAGAAGC (sugars k3 d10 k3, PS)",52%,
"GATGTAGTGGGAGTCG (sugars kkdddddddddkekek, PS)",38%,
